Results: PMC11111691, “Cystine-knot peptide inhibitors of HTRA1 bind to a cryptic pocket within the active site region” (Nature Communications, 2024)

Target: T1, HTRA1^FL, HTRA1^PD, HTRA1^PD/PDZ (Homo sapiens, UniProt Q92743)
T1 construct: made in house; host or cells: Trichoplusia ni cells (FL); E. coli (PD, PD/PDZ)
Experiment: Fluorescence-quenched casein-BODIPY assay, HTRA1 constructs
Type: biochemical
Details: 2 µM CKP (0.5 mM 7mer-ABP)
Experimental: The fluorescence-quenched casein-BODIPY® assay (EnzCheck®, Thermo Fisher Scientific) was carried out in TNC buffer (50 mM Tris pH 8.0, 200 mM NaCl, 0.25% CHAPS) at 37 °C in 96-well black optical bottom plates (Nalge Nunc Int., Rochester, NY). Enzymes were incubated with CKPs or DMSO control for 15 min prior to addition of casein substrate. The reactant concentrations were: 30 nM HTRA1^FL, 30 nM HTRA1^PD/PDZ, 30 nM HTRA1^PD, 30 nM HTRA2^PD/PDZ, 30 nM HTRA3^FL, 100 nM HTRA3^PD/PDZ, 30 nM HTRA4^FL, 300 nM HTRA4^PD/PDZ, 2 µM CKP, 5 µg/ml casein substrate and 0.25% DMSO. For selectivity assays, 0.5 mM 7mer-ABP was used as positive control. The kinetics of substrate cleavage were measured at 37 °C on a SpectraMax M5 microplate reader (Molecular Devices) with excitation of 485 nm and emission of 530 nm for 30 min (HTRA1 and HTRA2) or 5 h (HTRA3 and HTRA4). The determined initial rates of cleavage were expressed as percent of control (DMSO control) after subtracting the baseline rates (without enzyme).

Inhibition of HTRA1^FL, casein-BODIPY cleavage (% of control) (30 nM HTRA1^FL, 5 µg/ml casein, 37 °C): significantly inhibited
Inhibition of HTRA1^PD/PDZ, casein-BODIPY cleavage (% of control) (30 nM HTRA1^PD/PDZ): significantly inhibited
Substance: DPMFKLV-phosphonate [7mer-ABP]
